The text below walks through data of patent US7547799B1, “Method for producing phenolic compound” (Sabic Innovative Plastics IP B.V., priority 2008, dated 2009).

A short description of this data set: Determination of the solubility of BMSC in MeOH at 65° C. (with reflux). It counts as physicochemical. How it is done:
Determination of the Solubility of BMSC in MeOH at 65° C. (with Reflux):
BMSC was loaded in a round bottom flask, a small amount of MeOH was added to the BMSC, to form a slurry. This mixture was heated up to 65° C. under reflux. MeOH was then continuously added under vigorous stirring, until a lucid and colorless solution was obtained.

For the molecule `COC(=O)c1ccccc1OC(=O)Oc1ccccc1C(=O)OC` [BMSC, bismethylsalicylcarbonate], the “solubility of BMSC in MeOH (lucid and colorless solution obtained)” value (65° C., under reflux, vigorous stirring) worked out at 5.8 mass %. Further, the “solution of BMSC in MeOH obtainable under reflux” value (restated in the discussion) turned out to be 6%.
